In ChEMBL document CHEMBL6103592, “Discovery of novel thiazole-pleuromutilin derivatives with potent antibacterial activity” (Eur J Med Chem, 2025):
≈ marks a conversion by molar mass, not a printed value.

test system: Enterococcus faecalis; experiment: Antibacterial activity against Enterococcus faecalis assessed as inhibition of visible bacterial growth incubated for 24 hrs by CLSI based broth microdilution method; type: functional

How did the MIC turn out when C=C[C@]1(C)C[C@@H](OC(=O)CSc2nc(OC(=O)c3ccccc3Cl)cs2)[C@]2(C)[C@H](C)CC[C@]3(CCC(=O)[C@H]32)[C@@H](C)[C@@H]1O was run?
Its MIC is over 32 µg/mL.

How did the MIC turn out when CCC[C@@H]1C[C@@H](C(=O)N[C@@H]([C@H]2O[C@H](SC)[C@H](O)[C@@H](O)[C@H]2O)[C@H](C)Cl)N(C)C1 [CLINDAMYCIN] was run?
The MIC was 16 µg/mL (≈ 37.6 µM).

How did the MIC turn out when C=C[C@]1(C)C[C@@H](OC(=O)CSc2nc(OC(=O)c3ccc(C)cc3)cs2)[C@]2(C)[C@H](C)CC[C@]3(CCC(=O)[C@H]32)[C@@H](C)[C@@H]1O was run?
The MIC was over 32 µg/mL.

With C=C[C@]1(C)C[C@@H](OC(=O)CSc2nc(OC(=O)C(C)(C)CC)cs2)[C@]2(C)[C@H](C)CC[C@]3(CCC(=O)[C@H]32)[C@@H](C)[C@@H]1O as the molecule, how does the MIC read?
Its MIC is over 32 µg/mL.

For C=C[C@]1(C)C[C@@H](OC(=O)CSc2nc(OC(=O)c3cccc(F)c3)cs2)[C@]2(C)[C@H](C)CC[C@]3(CCC(=O)[C@H]32)[C@@H](C)[C@@H]1O, which MIC is on record?
Its MIC is over 32 µg/mL.

For C=C[C@]1(C)C[C@@H](OC(=O)CSc2nc(OC(=O)c3cccc(C)c3)cs2)[C@]2(C)[C@H](C)CC[C@]3(CCC(=O)[C@H]32)[C@@H](C)[C@@H]1O, which MIC is on record?
Its MIC is over 32 µg/mL.

How did the MIC turn out when C=C[C@]1(C)C[C@@H](OC(=O)CSc2nc(OC(=O)CC(C)C)cs2)[C@]2(C)[C@H](C)CC[C@]3(CCC(=O)[C@H]32)[C@@H](C)[C@@H]1O was run?
Its MIC is over 32 µg/mL.

test system: Mycoplasma; experiment: Antibacterial activity against Mycoplasma F3 assessed as inhibition of visible bacterial growth incubated for 24 hrs by CLSI based broth microdilution method; type: functional

How did the MIC turn out when C=C[C@]1(C)C[C@@H](OC(=O)CSc2nc(OC(=O)c3ccccc3Cl)cs2)[C@]2(C)[C@H](C)CC[C@]3(CCC(=O)[C@H]32)[C@@H](C)[C@@H]1O was run?
Its MIC is 0.25 µg/mL (≈ 0.395 µM).

How did the MIC turn out when CCC[C@@H]1C[C@@H](C(=O)N[C@@H]([C@H]2O[C@H](SC)[C@H](O)[C@@H](O)[C@H]2O)[C@H](C)Cl)N(C)C1 [CLINDAMYCIN] was run?
Its MIC is 1 µg/mL (≈ 2.35 µM).

How did the MIC turn out when C=C[C@]1(C)C[C@@H](OC(=O)CSc2nc(OC(=O)c3ccc(C)cc3)cs2)[C@]2(C)[C@H](C)CC[C@]3(CCC(=O)[C@H]32)[C@@H](C)[C@@H]1O was run?
Its MIC is 0.5 µg/mL (≈ 0.817 µM).

C=C[C@]1(C)C[C@@H](OC(=O)CSc2nc(OC(=O)C(C)(C)CC)cs2)[C@]2(C)[C@H](C)CC[C@]3(CCC(=O)[C@H]32)[C@@H](C)[C@@H]1O was tested. Which MIC did it give?
Its MIC is 0.125 µg/mL (≈ 0.211 µM).

C=C[C@]1(C)C[C@@H](OC(=O)CSc2nc(OC(=O)c3cccc(F)c3)cs2)[C@]2(C)[C@H](C)CC[C@]3(CCC(=O)[C@H]32)[C@@H](C)[C@@H]1O was tested. Which MIC did it give?
Its MIC is 0.5 µg/mL (≈ 0.812 µM).

For C=C[C@]1(C)C[C@@H](OC(=O)CSc2nc(OC(=O)c3cccc(C)c3)cs2)[C@]2(C)[C@H](C)CC[C@]3(CCC(=O)[C@H]32)[C@@H](C)[C@@H]1O, which MIC is on record?
The MIC was 0.5 µg/mL (≈ 0.817 µM).

Which MIC does the source give for C=C[C@]1(C)C[C@@H](OC(=O)CSc2nc(OC(=O)CC(C)C)cs2)[C@]2(C)[C@H](C)CC[C@]3(CCC(=O)[C@H]32)[C@@H](C)[C@@H]1O here?
The MIC was 0.125 µg/mL (≈ 0.216 µM).

test system: Escherichia coli; experiment: Antibacterial activity against Escherichia coli ATCC 25922 assessed as inhibition of visible bacterial growth incubated for 24 hrs by CLSI based broth microdilution method; type: functional

How did the MIC turn out when C=C[C@]1(C)C[C@@H](OC(=O)CSc2nc(OC(=O)c3ccccc3Cl)cs2)[C@]2(C)[C@H](C)CC[C@]3(CCC(=O)[C@H]32)[C@@H](C)[C@@H]1O was run?
The MIC was over 32 µg/mL.

With CCC[C@@H]1C[C@@H](C(=O)N[C@@H]([C@H]2O[C@H](SC)[C@H](O)[C@@H](O)[C@H]2O)[C@H](C)Cl)N(C)C1 [CLINDAMYCIN] as the molecule, how does the MIC read?
Its MIC is 32 µg/mL (≈ 75.3 µM).

How did the MIC turn out when C=C[C@]1(C)C[C@@H](OC(=O)CSc2nc(OC(=O)c3ccc(C)cc3)cs2)[C@]2(C)[C@H](C)CC[C@]3(CCC(=O)[C@H]32)[C@@H](C)[C@@H]1O was run?
The MIC was over 32 µg/mL.

Which MIC does the source give for C=C[C@]1(C)C[C@@H](OC(=O)CSc2nc(OC(=O)C(C)(C)CC)cs2)[C@]2(C)[C@H](C)CC[C@]3(CCC(=O)[C@H]32)[C@@H](C)[C@@H]1O here?
Its MIC is over 32 µg/mL.

With C=C[C@]1(C)C[C@@H](OC(=O)CSc2nc(OC(=O)c3cccc(F)c3)cs2)[C@]2(C)[C@H](C)CC[C@]3(CCC(=O)[C@H]32)[C@@H](C)[C@@H]1O as the molecule, how does the MIC read?
The MIC was over 32 µg/mL.

How did the MIC turn out when C=C[C@]1(C)C[C@@H](OC(=O)CSc2nc(OC(=O)c3cccc(C)c3)cs2)[C@]2(C)[C@H](C)CC[C@]3(CCC(=O)[C@H]32)[C@@H](C)[C@@H]1O was run?
The MIC was over 32 µg/mL.

For C=C[C@]1(C)C[C@@H](OC(=O)CSc2nc(OC(=O)CC(C)C)cs2)[C@]2(C)[C@H](C)CC[C@]3(CCC(=O)[C@H]32)[C@@H](C)[C@@H]1O, which MIC is on record?
The MIC was over 32 µg/mL.

test system: Staphylococcus aureus; experiment: Antibacterial activity against Staphylococcus aureus ATCC 25923 assessed as inhibition of visible bacterial growth incubated for 24 hrs by CLSI based broth microdilution method; type: functional

How did the MIC turn out when C=C[C@]1(C)C[C@@H](OC(=O)CSc2nc(OC(=O)c3ccccc3Cl)cs2)[C@]2(C)[C@H](C)CC[C@]3(CCC(=O)[C@H]32)[C@@H](C)[C@@H]1O was run?
The MIC was 1 µg/mL (≈ 1.58 µM).

With CCC[C@@H]1C[C@@H](C(=O)N[C@@H]([C@H]2O[C@H](SC)[C@H](O)[C@@H](O)[C@H]2O)[C@H](C)Cl)N(C)C1 [CLINDAMYCIN] as the molecule, how does the MIC read?
The MIC was over 32 µg/mL.

How did the MIC turn out when C=C[C@]1(C)C[C@@H](OC(=O)CSc2nc(OC(=O)c3ccc(C)cc3)cs2)[C@]2(C)[C@H](C)CC[C@]3(CCC(=O)[C@H]32)[C@@H](C)[C@@H]1O was run?
Its MIC is 0.25 µg/mL (≈ 0.409 µM).

For C=C[C@]1(C)C[C@@H](OC(=O)CSc2nc(OC(=O)C(C)(C)CC)cs2)[C@]2(C)[C@H](C)CC[C@]3(CCC(=O)[C@H]32)[C@@H](C)[C@@H]1O, which MIC is on record?
Its MIC is 0.25 µg/mL (≈ 0.422 µM).

With C=C[C@]1(C)C[C@@H](OC(=O)CSc2nc(OC(=O)c3cccc(F)c3)cs2)[C@]2(C)[C@H](C)CC[C@]3(CCC(=O)[C@H]32)[C@@H](C)[C@@H]1O as the molecule, how does the MIC read?
The MIC was 2 µg/mL (≈ 3.25 µM).

With C=C[C@]1(C)C[C@@H](OC(=O)CSc2nc(OC(=O)c3cccc(C)c3)cs2)[C@]2(C)[C@H](C)CC[C@]3(CCC(=O)[C@H]32)[C@@H](C)[C@@H]1O as the molecule, how does the MIC read?
The MIC was 0.5 µg/mL (≈ 0.817 µM).

For C=C[C@]1(C)C[C@@H](OC(=O)CSc2nc(OC(=O)CC(C)C)cs2)[C@]2(C)[C@H](C)CC[C@]3(CCC(=O)[C@H]32)[C@@H](C)[C@@H]1O, which MIC is on record?
Its MIC is 1 µg/mL (≈ 1.73 µM).

test system: Staphylococcus aureus; experiment: Antibacterial activity against methicillin-resistant Staphylococcus aureus ATCC 43300 assessed as inhibition of visible bacterial growth incubated for 24 hrs by CLSI based broth microdilution method; type: functional

How did the MIC turn out when C=C[C@]1(C)C[C@@H](OC(=O)CSc2nc(OC(=O)c3ccccc3Cl)cs2)[C@]2(C)[C@H](C)CC[C@]3(CCC(=O)[C@H]32)[C@@H](C)[C@@H]1O was run?
The MIC was 0.5 µg/mL (≈ 0.791 µM).

CCC[C@@H]1C[C@@H](C(=O)N[C@@H]([C@H]2O[C@H](SC)[C@H](O)[C@@H](O)[C@H]2O)[C@H](C)Cl)N(C)C1 [CLINDAMYCIN] was tested. Which MIC did it give?
The MIC was over 32 µg/mL.

How did the MIC turn out when C=C[C@]1(C)C[C@@H](OC(=O)CSc2nc(OC(=O)c3ccc(C)cc3)cs2)[C@]2(C)[C@H](C)CC[C@]3(CCC(=O)[C@H]32)[C@@H](C)[C@@H]1O was run?
The MIC was 1 µg/mL (≈ 1.63 µM).

C=C[C@]1(C)C[C@@H](OC(=O)CSc2nc(OC(=O)C(C)(C)CC)cs2)[C@]2(C)[C@H](C)CC[C@]3(CCC(=O)[C@H]32)[C@@H](C)[C@@H]1O was tested. Which MIC did it give?
Its MIC is 0.5 µg/mL (≈ 0.845 µM).

With C=C[C@]1(C)C[C@@H](OC(=O)CSc2nc(OC(=O)c3cccc(F)c3)cs2)[C@]2(C)[C@H](C)CC[C@]3(CCC(=O)[C@H]32)[C@@H](C)[C@@H]1O as the molecule, how does the MIC read?
The MIC was 0.5 µg/mL (≈ 0.812 µM).

Which MIC does the source give for C=C[C@]1(C)C[C@@H](OC(=O)CSc2nc(OC(=O)c3cccc(C)c3)cs2)[C@]2(C)[C@H](C)CC[C@]3(CCC(=O)[C@H]32)[C@@H](C)[C@@H]1O here?
Its MIC is 0.5 µg/mL (≈ 0.817 µM).

Which MIC does the source give for C=C[C@]1(C)C[C@@H](OC(=O)CSc2nc(OC(=O)CC(C)C)cs2)[C@]2(C)[C@H](C)CC[C@]3(CCC(=O)[C@H]32)[C@@H](C)[C@@H]1O here?
Its MIC is 0.5 µg/mL (≈ 0.865 µM).

test system: Streptococcus agalactiae; experiment: Antibacterial activity against Streptococcus agalactiae assessed as inhibition of visible bacterial growth incubated for 24 hrs by CLSI based broth microdilution method; type: functional

Which MIC does the source give for C=C[C@]1(C)C[C@@H](OC(=O)CSc2nc(OC(=O)c3ccccc3Cl)cs2)[C@]2(C)[C@H](C)CC[C@]3(CCC(=O)[C@H]32)[C@@H](C)[C@@H]1O here?
The MIC was 0.125 µg/mL (≈ 0.198 µM).

For CCC[C@@H]1C[C@@H](C(=O)N[C@@H]([C@H]2O[C@H](SC)[C@H](O)[C@@H](O)[C@H]2O)[C@H](C)Cl)N(C)C1 [CLINDAMYCIN], which MIC is on record?
Its MIC is over 32 µg/mL.

C=C[C@]1(C)C[C@@H](OC(=O)CSc2nc(OC(=O)c3ccc(C)cc3)cs2)[C@]2(C)[C@H](C)CC[C@]3(CCC(=O)[C@H]32)[C@@H](C)[C@@H]1O was tested. Which MIC did it give?
The MIC was 0.063 µg/mL (≈ 0.103 µM).

How did the MIC turn out when C=C[C@]1(C)C[C@@H](OC(=O)CSc2nc(OC(=O)C(C)(C)CC)cs2)[C@]2(C)[C@H](C)CC[C@]3(CCC(=O)[C@H]32)[C@@H](C)[C@@H]1O was run?
The MIC was 0.063 µg/mL (≈ 0.106 µM).

How did the MIC turn out when C=C[C@]1(C)C[C@@H](OC(=O)CSc2nc(OC(=O)c3cccc(F)c3)cs2)[C@]2(C)[C@H](C)CC[C@]3(CCC(=O)[C@H]32)[C@@H](C)[C@@H]1O was run?
Its MIC is 0.125 µg/mL (≈ 0.203 µM).

C=C[C@]1(C)C[C@@H](OC(=O)CSc2nc(OC(=O)c3cccc(C)c3)cs2)[C@]2(C)[C@H](C)CC[C@]3(CCC(=O)[C@H]32)[C@@H](C)[C@@H]1O was tested. Which MIC did it give?
The MIC was 0.063 µg/mL (≈ 0.103 µM).

With C=C[C@]1(C)C[C@@H](OC(=O)CSc2nc(OC(=O)CC(C)C)cs2)[C@]2(C)[C@H](C)CC[C@]3(CCC(=O)[C@H]32)[C@@H](C)[C@@H]1O as the molecule, how does the MIC read?
The MIC was 0.125 µg/mL (≈ 0.216 µM).
